# B1: BceF kinase domain (residues 471-741) from Burkholderia cepacia (domain or fragment)
# chain: RRNMFQGIEDPDRIERAFNLPLYGLVPQSAEQVKLDAQAEKSGSRTRPILASLRPKDLSVESLRSLRTAMQFAMMDAKNRVIVLTGPTPGIGKSFLTVNLAVLLAHSGKRVLLIDADMRRGLLDRYFGLTSQPGLSELLSDQSALEDAVRETPVQGLSFISAGTRPPNPSELLMSTRLPQYLEGLGKRYDVVLIDSPPVLAVTDATIIGRMAGSTFLVLRSGMHTEGEIADAIKRLRTAGVDLEGGIFNGVPPKARGYGRGYAAVHEYLSA
# modifications: partly phosphotyrosine in the C-terminal tail 725-741 (MS/MS: 28% non-phosphorylated, 68% monophosphorylated mostly at the third tyrosine, position 14 of the peptide)
# notes: His6 tag and TEV site at the N-terminus; cleaved with TEV in the preparation for crystallisation; also called isolated BceF kinase domain; BceF tyrosine kinase domain; source: E. coli BL21(DE3), purified (HisTrap, TEV cleavage, second HisTrap, SEC Superdex 200); not shown: His6, N-terminal, cleaved
# What was measured:
# [1] = target: T1, BceF kinase domain (Burkholderia cepacia, UniProt Q0GYW2); test: X-ray crystal structure, […] Å; type: binding; conditions: endogenous ADP co-purified from E. coli; active site; crystals pH 5.5
# T1 construct: cytoplasmic kinase domain, residues 471-741; synthetic codon-optimised gene, N-terminal His6-TEV; E. coli BL21(DE3); partly phosphorylated C-terminal tyrosines
# [2] = target: T1, BceF kinase domain; test: microscale thermophoresis, NT-647 labelled protein; type: binding
# [3] = target: the molecule itself; test: SEC-MALS; Superdex 75 10/300 column, miniDAWN TREOS and Optilab T-rEX; SEC analysis at pH 7.5; single species of 59.1 kDa against a calculated monomer of 29.4 kDa
molecule,measurement,setting,value
Nc1ncnc2c1ncn2[C@@H]1O[C@H](COP(=O)(O)OP(=O)(O)O)[C@@H](O)[C@H]1O [ADP],"X-ray crystal structure, 1.85 Å",[1],The structure revealed an adenosine diphosphate (ADP) molecule bound at the active site
Nc1ncnc2c1ncn2[C@@H]1O[C@H](COP(=O)(O)OP(=O)(O)NP(=O)(O)O)[C@@H](O)[C@H]1O [AMP-PNP],Kd,[2],1640 ± 220 µM
B1,stoichiometry N,[3],2

# Source: publication PMC8394532, “Structural and Functional Insights into the Biofilm-Associated BceF Tyrosine Kinase Domain from Burkholderia cepacia” (Biomolecules, 2021)
